Data: PubChem BioAssay (NCI)
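1) Cells in 96-well plates. 2) Compound, 48 h, 5 concentrations. 3) Linear interpolation between surrounding doses. 4) Unreached endpoint = highest concentration. Abbreviation: GI50, concentration required for 50% inhibition of growth. TGI marks complete inhibition of growth.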

How the values were obtained:
Test in all cases: DTP human tumour cell line panel, 48 h
786-0 renal = test system: 786-0 renal
A498 renal = test system: A498 renal
A549 NSCLC = test system: A549 NSCLC
ACHN renal = test system: ACHN renal
BT-549 breast = test system: BT-549 breast
CAKI-1 renal = test system: CAKI-1 renal
CCRF-CEM leukemia = test system: CCRF-CEM leukemia
COLO 205 colon = test system: COLO 205 colon
DU-145 prostate = test system: DU-145 prostate
EKVX NSCLC = test system: EKVX NSCLC
HCC-2998 colon = test system: HCC-2998 colon
HCT-116 colon = test system: HCT-116 colon
HCT-15 colon = test system: HCT-15 colon
HL-60(TB) leukemia = test system: HL-60(TB) leukemia
HOP-62 NSCLC = test system: HOP-62 NSCLC
HOP-92 NSCLC = test system: HOP-92 NSCLC
HS 578T breast = test system: HS 578T breast
HT29 colon = test system: HT29 colon
IGROV1 ovarian = test system: IGROV1 ovarian
K-562 leukemia = test system: K-562 leukemia
KM12 colon = test system: KM12 colon
LOX IMVI melanoma = test system: LOX IMVI melanoma
M14 melanoma = test system: M14 melanoma
MALME-3M melanoma = test system: MALME-3M melanoma
MCF7 breast = test system: MCF7 breast
MDA-MB-231 breast = test system: MDA-MB-231 breast
MDA-MB-435 = test system: MDA-MB-435
MDA-MB-468 breast = test system: MDA-MB-468 breast
MOLT-4 leukemia = test system: MOLT-4 leukemia
NCI-H226 lung = test system: NCI-H226 lung
NCI-H23 lung = test system: NCI-H23 lung
NCI-H460 lung = test system: NCI-H460 lung
NCI-H522 lung = test system: NCI-H522 lung
NCI/ADR-RES ovarian = test system: NCI/ADR-RES ovarian
OVCAR-3 ovarian = test system: OVCAR-3 ovarian
OVCAR-4 ovarian = test system: OVCAR-4 ovarian
OVCAR-5 ovarian = test system: OVCAR-5 ovarian
OVCAR-8 ovarian = test system: OVCAR-8 ovarian
PC-3 prostate = test system: PC-3 prostate
RPMI-8226 leukemia = test system: RPMI-8226 leukemia
RXF 393 renal = test system: RXF 393 renal
SF-268 CNS = test system: SF-268 CNS
SF-295 CNS = test system: SF-295 CNS
SF-539 CNS = test system: SF-539 CNS
SK-MEL-2 melanoma = test system: SK-MEL-2 melanoma
SK-MEL-28 melanoma = test system: SK-MEL-28 melanoma
SK-MEL-5 melanoma = test system: SK-MEL-5 melanoma
SK-OV-3 ovarian = test system: SK-OV-3 ovarian
SN12C renal = test system: SN12C renal
SNB-19 CNS = test system: SNB-19 CNS
SNB-75 CNS = test system: SNB-75 CNS
SR leukemia = test system: SR leukemia
SW-620 colon = test system: SW-620 colon
T-47D breast = test system: T-47D breast
TK-10 renal = test system: TK-10 renal
U251 CNS = test system: U251 CNS
UACC-257 melanoma = test system: UACC-257 melanoma
UACC-62 melanoma = test system: UACC-62 melanoma
UO-31 renal = test system: UO-31 renal

Cc1cc2nc3c4ccccc4n(CCNCCN(C)C)c3nc2cc1C
GI50 (786-0 renal): 8.4 µM | TGI (786-0 renal): 22.2 µM | GI50 (A498 renal): 14.5 µM | TGI (A498 renal): 29.2 µM | GI50 (A549 NSCLC): 4.67 µM | TGI (A549 NSCLC): 19.5 µM | GI50 (ACHN renal): 4.31 µM | TGI (ACHN renal): 17 µM | GI50 (BT-549 breast): 14.1 µM | TGI (BT-549 breast): 28 µM | GI50 (CAKI-1 renal): 10.8 µM | TGI (CAKI-1 renal): 22.7 µM | GI50 (CCRF-CEM leukemia): 11.5 µM | TGI (CCRF-CEM leukemia): 31.7 µM | GI50 (COLO 205 colon): 3.98 µM | TGI (COLO 205 colon): 17.3 µM | GI50 (DU-145 prostate): 5.69 µM | TGI (DU-145 prostate): 18.1 µM | GI50 (EKVX NSCLC): 11.1 µM | TGI (EKVX NSCLC): 24.2 µM | GI50 (HCC-2998 colon): 5.47 µM | TGI (HCC-2998 colon): 19.5 µM | GI50 (HCT-116 colon): 5.35 µM | TGI (HCT-116 colon): 18.8 µM | GI50 (HCT-15 colon): 5.23 µM | TGI (HCT-15 colon): 18.3 µM | GI50 (HL-60(TB) leukemia): 5.51 µM | TGI (HL-60(TB) leukemia): 20.3 µM | GI50 (HOP-62 NSCLC): 4.98 µM | TGI (HOP-62 NSCLC): 19.8 µM | GI50 (HOP-92 NSCLC): 3.45 µM | TGI (HOP-92 NSCLC): 22.5 µM | GI50 (HS 578T breast): 9.6 µM | TGI (HS 578T breast): 30.7 µM | GI50 (HT29 colon): 3.84 µM | TGI (HT29 colon): 15.5 µM | GI50 (IGROV1 ovarian): 4.81 µM | TGI (IGROV1 ovarian): 18.5 µM | GI50 (K-562 leukemia): 3.35 µM | TGI (K-562 leukemia): 13.7 µM | GI50 (KM12 colon): 13.2 µM | TGI (KM12 colon): 26.9 µM | GI50 (LOX IMVI melanoma): 3.07 µM | TGI (LOX IMVI melanoma): 15.3 µM | GI50 (M14 melanoma): 7.43 µM | TGI (M14 melanoma): 23.3 µM | GI50 (MALME-3M melanoma): 9.35 µM | TGI (MALME-3M melanoma): 23.2 µM | GI50 (MCF7 breast): 3.27 µM | TGI (MCF7 breast): 14.6 µM | GI50 (MDA-MB-231 breast): 6.88 µM | TGI (MDA-MB-231 breast): 21.1 µM | GI50 (MDA-MB-435): 5.23 µM | TGI (MDA-MB-435): 17.8 µM | GI50 (MDA-MB-468 breast): 7.78 µM | TGI (MDA-MB-468 breast): 21.3 µM | GI50 (MOLT-4 leukemia): 4.09 µM | TGI (MOLT-4 leukemia): 15.6 µM | GI50 (NCI-H226 lung): 6.13 µM | TGI (NCI-H226 lung): 26.5 µM | GI50 (NCI-H23 lung): 11.5 µM | TGI (NCI-H23 lung): 26.6 µM | GI50 (NCI-H460 lung): 3.61 µM | TGI (NCI-H460 lung): 13.6 µM | GI50 (NCI-H522 lung): 8.38 µM | TGI (NCI-H522 lung): 23.5 µM | GI50 (NCI/ADR-RES ovarian): 8.46 µM | TGI (NCI/ADR-RES ovarian): 29 µM | GI50 (OVCAR-3 ovarian): 7.35 µM | TGI (OVCAR-3 ovarian): 20.5 µM | GI50 (OVCAR-4 ovarian): 4.89 µM | TGI (OVCAR-4 ovarian): 19.1 µM | GI50 (OVCAR-5 ovarian): 6.68 µM | TGI (OVCAR-5 ovarian): 19.5 µM | GI50 (OVCAR-8 ovarian): 4.66 µM | TGI (OVCAR-8 ovarian): 20.3 µM | GI50 (PC-3 prostate): 5.23 µM | TGI (PC-3 prostate): 23.2 µM | GI50 (RPMI-8226 leukemia): 3.36 µM | TGI (RPMI-8226 leukemia): 18.3 µM | GI50 (RXF 393 renal): 5.17 µM | TGI (RXF 393 renal): 18.2 µM | GI50 (SF-268 CNS): 9.33 µM | TGI (SF-268 CNS): 23.9 µM | GI50 (SF-295 CNS): 6.48 µM | TGI (SF-295 CNS): 19.6 µM | GI50 (SF-539 CNS): 4.96 µM | TGI (SF-539 CNS): 17.4 µM | GI50 (SK-MEL-2 melanoma): 12.6 µM | TGI (SK-MEL-2 melanoma): 27.6 µM | GI50 (SK-MEL-28 melanoma): 7.61 µM | TGI (SK-MEL-28 melanoma): 20.1 µM | GI50 (SK-MEL-5 melanoma): 12.6 µM | TGI (SK-MEL-5 melanoma): 25.6 µM | GI50 (SK-OV-3 ovarian): 11.7 µM | TGI (SK-OV-3 ovarian): 29.4 µM | GI50 (SN12C renal): 4.63 µM | TGI (SN12C renal): 18.5 µM | GI50 (SNB-19 CNS): 7.26 µM | TGI (SNB-19 CNS): 20 µM | GI50 (SNB-75 CNS): 3.33 µM | TGI (SNB-75 CNS): 20.3 µM | GI50 (SR leukemia): 2.01 µM | TGI (SR leukemia): 5.92 µM | GI50 (SW-620 colon): 3.87 µM | TGI (SW-620 colon): 16.2 µM | GI50 (T-47D breast): 12.2 µM | TGI (T-47D breast): 31.2 µM | GI50 (TK-10 renal): 8.06 µM | TGI (TK-10 renal): 20.8 µM | GI50 (U251 CNS): 6.09 µM | TGI (U251 CNS): 19.7 µM | GI50 (UACC-257 melanoma): 1.98 µM | TGI (UACC-257 melanoma): 5.35 µM | GI50 (UACC-62 melanoma): 6.63 µM | TGI (UACC-62 melanoma): 19.8 µM | GI50 (UO-31 renal): 1.49 µM | TGI (UO-31 renal): 14.6 µM
